# Experimental data reported in PubChem BioAssay AID248 (DTP/NCI, 2004).
# Values joined by “and” are separate entries in the source; they are usually repeats but may differ in a detail not shown here. Equal entries are not always repeated. Toxic doses and inconclusive results are not listed.
# Test system: L1210 leukemia ip in BDF1 mice, survival T/C
# Assay: NCI In Vivo Anticancer Drug Screen. Data for tumor model L1210 Leukemia (intraperitoneal) in B6D2F1 (BDF1) mice
# Details: higher = longer survival
# In short: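 Survival endpoint. Drug-treated group vs vehicle group, expressed as T divided by C. Tumor passaged by transplantation.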
# [1] = endpoint: mean survival time, dose: 12.5 mg/kg/injection, schedule: Q01DX009 (ip), vehicle: saline
# [2] = endpoint: mean survival time, dose: 100.0 mg/kg/injection, schedule: Q01DX009 (ip), vehicle: saline with Tween-80
# [3] = endpoint: mean survival time, dose: 200.0 mg/kg/injection, schedule: Q01DX009 (ip), vehicle: saline with Tween-80
# [4] = endpoint: mean survival time, dose: 400.0 mg/kg/injection, schedule: Q01DX009 (ip), vehicle: saline with Tween-80
compound,measurement,setting,value
S=P(N1CC1)(N1CC1)N1CC1,T/C,"endpoint: mean survival time, dose: 0.19 mg/kg/injection, schedule: Q01DX009 (ip), vehicle: saline",103 % of control and 104 % of control
same,T/C,"endpoint: mean survival time, dose: 0.3 mg/kg/injection, schedule: Q01DX Z (ip), vehicle: carboxymethylcellulose (CMC)",106 % of control
same,T/C,"endpoint: mean survival time, dose: 0.38 mg/kg/injection, schedule: Q01DX009 (ip), vehicle: saline",104 % of control and 111 % of control
same,T/C,"endpoint: mean survival time, dose: 0.6 mg/kg/injection, schedule: Q01DX Z (ip), vehicle: carboxymethylcellulose (CMC)",101 % of control
same,T/C,"endpoint: mean survival time, dose: 0.75 mg/kg/injection, schedule: Q01DX009 (ip), vehicle: saline",107 % of control and 120 % of control
same,T/C,"endpoint: mean survival time, dose: 1.0 mg/kg/injection, schedule: Q01DX001 (ip), vehicle: saline",95 % of control (2×) and 119 % of control
same,T/C,"endpoint: mean survival time, dose: 1.0 mg/kg/injection, schedule: Q01DX001 (oral), vehicle: saline",98 % of control and 105 % of control
same,T/C,"endpoint: mean survival time, dose: 1.0 mg/kg/injection, schedule: Q01DX009 (ip), vehicle: saline",98 % of control and 119 % of control
same,T/C,"endpoint: mean survival time, dose: 1.0 mg/kg/injection, schedule: Q04DX002 (ip), vehicle: saline",102 % of control and 121 % of control
same,T/C,"endpoint: mean survival time, dose: 1.0 mg/kg/injection, schedule: Q04DX003 (ip), vehicle: saline",96 % of control and 104 % of control and 116 % of control
same,T/C,"endpoint: mean survival time, dose: 1.2 mg/kg/injection, schedule: Q01DX Z (ip), vehicle: carboxymethylcellulose (CMC)",109 % of control
same,T/C,"endpoint: mean survival time, dose: 1.25 mg/kg/injection, schedule: Q01DX Z (ip), vehicle: saline",118 % of control
same,T/C,"endpoint: mean survival time, dose: 1.5 mg/kg/injection, schedule: Q01DX010 (oral), vehicle: carboxymethylcellulose (CMC)",113 % of control
same,T/C,"endpoint: mean survival time, dose: 1.56 mg/kg/injection, schedule: Q01DX009 (ip), vehicle: saline",102 % of control and 117 % of control
same,T/C,"endpoint: mean survival time, dose: 1.65 mg/kg/injection, schedule: Q01DX001 (ip), vehicle: saline",104 % of control
same,T/C,"endpoint: mean survival time, dose: 2.0 mg/kg/injection, schedule: Q01DX001 (ip), vehicle: saline",97 % of control and 103 % of control and 114 % of control
same,T/C,"endpoint: mean survival time, dose: 2.0 mg/kg/injection, schedule: Q01DX001 (oral), vehicle: saline",98 % of control and 102 % of control
same,T/C,"endpoint: mean survival time, dose: 2.0 mg/kg/injection, schedule: Q01DX009 (ip), vehicle: saline",108 % of control
same,T/C,"endpoint: mean survival time, dose: 2.0 mg/kg/injection, schedule: Q04DX002 (ip), vehicle: saline",101 % of control and 107 % of control
same,T/C,"endpoint: mean survival time, dose: 2.0 mg/kg/injection, schedule: Q04DX003 (ip), vehicle: saline",102 % of control and 109 % of control and 116 % of control
same,T/C,"endpoint: mean survival time, dose: 2.4 mg/kg/injection, schedule: Q01DX Z (ip), vehicle: carboxymethylcellulose (CMC)",121 % of control and 123 % of control
same,T/C,"endpoint: mean survival time, dose: 2.5 mg/kg/injection, schedule: Q01DX001 (ip), vehicle: saline",110 % of control
same,T/C,"endpoint: mean survival time, dose: 2.5 mg/kg/injection, schedule: Q01DX Z (ip), vehicle: saline",120 % of control
same,T/C,"endpoint: mean survival time, dose: 3.0 mg/kg/injection, schedule: Q01DX001 (ip), vehicle: saline",106 % of control
same,T/C,"endpoint: mean survival time, dose: 3.0 mg/kg/injection, schedule: Q01DX010 (oral), vehicle: carboxymethylcellulose (CMC)",115 % of control
same,T/C,"endpoint: mean survival time, dose: 3.6 mg/kg/injection, schedule: Q01DX Z (ip), vehicle: carboxymethylcellulose (CMC)",118 % of control
same,T/C,"endpoint: mean survival time, dose: 3.8 mg/kg/injection, schedule: Q01DX001 (ip), vehicle: saline",110 % of control
same,T/C,"endpoint: mean survival time, dose: 4.0 mg/kg/injection, schedule: Q01DX001 (ip), vehicle: saline",97 % of control and 106 % of control and 111 % of control
same,T/C,"endpoint: mean survival time, dose: 4.0 mg/kg/injection, schedule: Q01DX001 (oral), vehicle: saline",101 % of control and 105 % of control
same,T/C,"endpoint: mean survival time, dose: 4.0 mg/kg/injection, schedule: Q01DX009 (ip), vehicle: saline",160 % of control and 161 % of control and 191 % of control
same,T/C,"endpoint: mean survival time, dose: 5.0 mg/kg/injection, schedule: Q01DX Z (ip), vehicle: saline",102 % of control
same,T/C,"endpoint: mean survival time, dose: 5.7 mg/kg/injection, schedule: Q01DX001 (ip), vehicle: saline",111 % of control
same,T/C,"endpoint: mean survival time, dose: 6.0 mg/kg/injection, schedule: Q01DX001 (ip), vehicle: saline",113 % of control and 123 % of control
same,T/C,"endpoint: mean survival time, dose: 6.25 mg/kg/injection, schedule: Q01DX009 (ip), vehicle: saline",178 % of control
same,T/C,"endpoint: mean survival time, dose: 7.5 mg/kg/injection, schedule: Q01DX001 (ip), vehicle: saline",106 % of control and 118 % of control
same,T/C,"endpoint: mean survival time, dose: 8.0 mg/kg/injection, schedule: Q01DX001 (oral), vehicle: saline",105 % of control and 117 % of control
same,T/C,"endpoint: mean survival time, dose: 8.0 mg/kg/injection, schedule: Q01DX009 (ip), vehicle: saline",107 % of control and 113 % of control
same,T/C,"endpoint: mean survival time, dose: 8.0 mg/kg/injection, schedule: Q04DX003 (ip), vehicle: saline",150 % of control and 179 % of control
same,T/C,"endpoint: mean survival time, dose: 8.7 mg/kg/injection, schedule: Q01DX001 (ip), vehicle: saline",161 % of control
same,T/C,"endpoint: mean survival time, dose: 11.0 mg/kg/injection, schedule: Q01DX001 (ip), vehicle: saline",122 % of control
same,T/C,"endpoint: mean survival time, dose: 12.0 mg/kg/injection, schedule: Q01DX009 (ip), vehicle: saline",95 % of control and 100 % of control
same,T/C,"endpoint: mean survival time, dose: 12.0 mg/kg/injection, schedule: Q01DX010 (oral), vehicle: carboxymethylcellulose (CMC)",166 % of control
same,T/C,[1],118 % of control
same,T/C,"endpoint: mean survival time, dose: 14.0 mg/kg/injection, schedule: Q01DX001 (ip), vehicle: saline",109 % of control
same,T/C,"endpoint: mean survival time, dose: 15.0 mg/kg/injection, schedule: Q01DX001 (ip), vehicle: saline",163 % of control and 201 % of control
same,T/C,"endpoint: mean survival time, dose: 16.0 mg/kg/injection, schedule: Q01DX001 (oral), vehicle: saline",121 % of control
same,T/C,"endpoint: mean survival time, dose: 16.0 mg/kg/injection, schedule: Q04DX003 (ip), vehicle: saline",104 % of control
same,T/C,"endpoint: mean survival time, dose: 17.0 mg/kg/injection, schedule: Q01DX001 (ip), vehicle: saline",152 % of control and 155 % of control and 163 % of control
same,T/C,"endpoint: mean survival time, dose: 20.0 mg/kg/injection, schedule: Q01DX001 (ip), vehicle: saline",163 % of control
same,T/C,"endpoint: mean survival time, dose: 22.0 mg/kg/injection, schedule: Q01DX001 (ip), vehicle: saline",191 % of control
same,T/C,"endpoint: mean survival time, dose: 23.0 mg/kg/injection, schedule: Q01DX001 (ip), vehicle: saline",150 % of control
same,T/C,"endpoint: mean survival time, dose: 24.0 mg/kg/injection, schedule: Q01DX010 (oral), vehicle: carboxymethylcellulose (CMC)",152 % of control
same,T/C,"endpoint: mean survival time, dose: 32.0 mg/kg/injection, schedule: Q04DX002 (ip), vehicle: saline",94 % of control
same,T/C,"endpoint: median survival time, dose: 1.5 mg/kg/injection, schedule: Q01DX009 (ip), vehicle: distilled water + alcohol",103 % of control
same,T/C,"endpoint: median survival time, dose: 1.5 mg/kg/injection, schedule: Q01DX009 (ip), vehicle: other",94 % of control
same,T/C,"endpoint: median survival time, dose: 4.0 mg/kg/injection, schedule: Q01DX009 (ip), vehicle: water",151 % of control
same,T/C,"endpoint: median survival time, dose: 5.0 mg/kg/injection, schedule: Q01DX009 (ip), vehicle: water",108 % of control
same,T/C,"endpoint: median survival time, dose: 6.0 mg/kg/injection, schedule: Q01DX009 (ip), vehicle: water",110 % of control
Cc1ccc(C(=O)N/N=C/c2ccc(N(C)C)cc2Cl)cc1,T/C,"endpoint: mean survival time, dose: 100.0 mg/kg/injection, schedule: Q04DX002 (ip), vehicle: saline",105 % of control
same,T/C,"endpoint: mean survival time, dose: 200.0 mg/kg/injection, schedule: Q04DX002 (ip), vehicle: saline",108 % of control
same,T/C,"endpoint: mean survival time, dose: 400.0 mg/kg/injection, schedule: Q04DX002 (ip), vehicle: saline",105 % of control
CC12C3CCC(C3)C1(O)C2S(=O)(=O)N1CCCCC1 (stereo not drawn),T/C,"endpoint: mean survival time, dose: 100.0 mg/kg/injection, schedule: Q01DX009 (ip), vehicle: saline",110 % of control
same,T/C,"endpoint: mean survival time, dose: 200.0 mg/kg/injection, schedule: Q01DX009 (ip), vehicle: saline",104 % of control
Nc1nnco1,T/C,"endpoint: mean survival time, dose: 222.0 mg/kg/injection, schedule: Q01DX Z (ip), vehicle: saline",97 % of control
same,T/C,"endpoint: mean survival time, dose: 333.0 mg/kg/injection, schedule: Q01DX Z (ip), vehicle: saline",108 % of control
same,T/C,"endpoint: mean survival time, dose: 500.0 mg/kg/injection, schedule: Q01DX Z (ip), vehicle: saline",97 % of control
O=C(/C=C/c1ccccc1)N1CCCCC1,T/C,[2],93 % of control
same,T/C,"endpoint: mean survival time, dose: 100.0 mg/kg/injection, schedule: Q04DX002 (ip), vehicle: Klucel (hydroxypropylcellulose) (HPC)",108 % of control
same,T/C,[3],95 % of control
same,T/C,"endpoint: mean survival time, dose: 200.0 mg/kg/injection, schedule: Q04DX002 (ip), vehicle: Klucel (hydroxypropylcellulose) (HPC)",101 % of control
same,T/C,[4],102 % of control
O=C1OCc2cc3ccccc3nc21,T/C,[2],94 % of control
same,T/C,"endpoint: mean survival time, dose: 100.0 mg/kg/injection, schedule: Q04DX003 (ip), vehicle: saline with Tween-80",105 % of control
same,T/C,[3],97 % of control
same,T/C,"endpoint: mean survival time, dose: 200.0 mg/kg/injection, schedule: Q04DX003 (ip), vehicle: saline with Tween-80",105 % of control
same,T/C,[4],92 % of control
same,T/C,"endpoint: mean survival time, dose: 400.0 mg/kg/injection, schedule: Q04DX003 (ip), vehicle: saline with Tween-80",96 % of control
CCCC(=O)NN=C(C)C,T/C,[1],109 % of control
same,T/C,"endpoint: mean survival time, dose: 25.0 mg/kg/injection, schedule: Q01DX009 (ip), vehicle: saline",109 % of control
same,T/C,"endpoint: mean survival time, dose: 50.0 mg/kg/injection, schedule: Q01DX009 (ip), vehicle: saline",95 % of control
CCOC(=O)c1cnc(SC)nc1Nc1cccc(Cl)c1Cl,T/C,"endpoint: mean survival time, dose: 100.0 mg/kg/injection, schedule: Q04DX003 (ip), vehicle: Klucel (hydroxypropylcellulose) (HPC)",100 % of control
same,T/C,"endpoint: mean survival time, dose: 200.0 mg/kg/injection, schedule: Q04DX003 (ip), vehicle: Klucel (hydroxypropylcellulose) (HPC)",95 % of control
same,T/C,"endpoint: mean survival time, dose: 400.0 mg/kg/injection, schedule: Q04DX003 (ip), vehicle: Klucel (hydroxypropylcellulose) (HPC)",94 % of control
